Earlier results in US20230321241A1, “CANCER PEPTIDE VACCINE AND METHOD OF PREPARING THE SAME” (BrightPath Biotherapeutics Co., Ltd., priority 2020, published 2023).

Test system: PD-L1-Positive Non-Small-Cell Lung Cancer
Conditions: pembrolizumab alone in similar subjects; cited from earlier work

In the case of “pembrolizumab: anti-PD-1 antibody (Merck & Co., Inc.)”, the response rate is given as 45%.
